Experimental data as given in article PMC8662641, “Site-Specific Labeling of Endogenous Proteins Using CoLDR Chemistry” (Journal of the American Chemical Society, 2021).

Key:
BTK-1h = biological target: T1, BTK-1h (Homo sapiens, UniProt Q06187); assay: High-throughput screening with 1h-labeled BTK; assay type: binding
T1 construct: The BTK kinase domain was diluted to 2 μM in the buffer, and 2 μM 1h was added; made in house
Description: The collection was composed of BTK binding compounds obtained in our previous luminescence screen[37] (Data set S2). […] The resulting BTK-1h (50 μL) was added to the inhibitors.

BTK = BTK (Homo sapiens, UniProt Q06187); design: BTK kinase domain was expressed and purified as previously reported; made in house; method as in Reddi et al., J. Am. Chem. Soc. 2021, 143 (13), 4979–4992; conditions: ref Reddi et al., J. Am. Chem. Soc. 2021, 143 (13), 4979–4992; cited from earlier work
[1] = Dataset S2A, 200 μM compound, BTK-1h, 32 °C, 10 min
[2] = Dataset S2C, BTK-1h with inhibitor

Chain of BTK (Q06187 402-655 limits assumed): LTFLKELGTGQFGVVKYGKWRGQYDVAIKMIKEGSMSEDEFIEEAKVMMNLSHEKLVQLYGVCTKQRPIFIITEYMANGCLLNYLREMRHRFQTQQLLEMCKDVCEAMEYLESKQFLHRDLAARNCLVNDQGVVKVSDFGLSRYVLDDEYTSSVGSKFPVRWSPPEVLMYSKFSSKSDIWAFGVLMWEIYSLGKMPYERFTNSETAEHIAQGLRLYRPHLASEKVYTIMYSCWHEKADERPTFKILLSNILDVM
T1 sequence (Q06187 402-655): as the sequence (Q06187 402-655 limits assumed) above

Row | Compound | FI (BTK-1h)/FI (BTK-1h+Inhibitor) at 620 nm (BTK-1h; [1]) | FI (650)/FI (620) (BTK-1h; [2]) | BTK Inhibition reported in luminescence assay* (BTK) | FI (650)/FI (620) (BTK-1h; [1])
1 | O=C(O)c1cc(O)c2c(c1)[C@@H]([C@H]1c3cc(C(=O)O)cc(O)c3C(=O)c3c(O[C@@H]4O[C@H](CO)[C@@H](O)[C@H](O)[C@H]4O)cccc31)c1cccc(O[C@@H]3O[C@H](CO)[C@@H](O)[C@H](O)[C@H]3O)c1C2=O [PCM-0086913-003, Sennoside B] | 1.82 | 1.82 | 84.1 | 
2 | CCc1cccc(CC)c1NC(=O)N1Cc2[nH]nc(NC(=O)c3ccc(N4CCN(C)CC4)cc3)c2C1 [PCM-0095127-002] | 1.096 |  | 65.5 | 1.117
3 | CCOc1cc2ncc(C#N)c(Nc3ccc(F)c(Cl)c3)c2cc1NC(=O)/C=C/CN(C)C [PCM-0095063-002] | 1.036 |  | 96.6 | 0.9721
4 | O=c1cc(-c2ccc(O)cc2)oc2cc(O)cc(O)c12 [PCM-0064643-001] | 1.036 |  | 63.8 | 0.8396
5 | O=C(NCCCNc1nc(Nc2cccc(NC(=O)N3CCCC3)c2)ncc1I)c1cccs1 [PCM-0095061-002] | 1.055 |  | 60 | 1.86
6 | COc1cc(C[C@H](C)[C@H](C)Cc2ccc3c(c2)OCO3)ccc1O [PCM-0216424-001] | 1.025 |  | 68.7 | 0.9224
7 | COc1ccc(-c2nc(-c3cc(C(F)(F)F)cc(C(F)(F)F)c3)n(Cc3ccc(C(N)=O)cc3)c2-c2ccc(OC)cc2)cc1 [PCM-0215748-001] | 1.0289 |  | 57.1 | 0.9815
8 | C=CC(=O)Nc1cc(Nc2nccc(-c3c[nH]c4ccccc34)n2)c(OC)cc1N(C)CCN(C)C [PCM-0215489-001] | 1.031 |  | 91.7 | 1.101
9 | C=CC(=O)Nc1cccc(Oc2nc(Nc3ccc(N4CCN(C)CC4)cc3OC)ncc2Cl)c1 [PCM-0095043-002] | 1.038 |  | 89 | 0.9704
10 | Cc1ccc(NC(=O)Nc2cc(C(F)(F)F)ccc2F)cc1Nc1ccc2c(c1)NC(=O)/C2=C\c1ccc[nH]1 [PCM-0215372-001] | 1.003 |  | 115.9 | 1.5507
11 | Oc1ccc(Nc2nc(-c3ccc(Cl)cc3)cs2)cc1 [PCM-0095692-002] | 1.009 |  | 84.8 | 1.023
12 | O=C(Nc1c[nH]nc1-c1nc2ccc(CN3CCOCC3)cc2[nH]1)NC1CC1 [PCM-0094942-002, AT9283] | 1.798 | 1.798 | 93.8 | 2.2858
13 | COc1ccc2c(O[C@@H]3C[C@H]4C(=O)N[C@]5(C(=O)NS(=O)(=O)C6CC6)C[C@H]5/C=C\CCCCN(C)C(=O)[C@@H]4C3)cc(-c3nc(C(C)C)cs3)nc2c1C [PCM-0215097-001] | 1.053 |  | 55.6 | 0.9923
14 | Cc1nc(Nc2n[nH]c3c2CN(C(=O)N[C@H](CN(C)C)c2ccccc2)C3(C)C)c2sccc2n1 [PCM-0095819-002] | 1.0756 |  | 72.4 | 0.9908
15 | COCCOC(=O)C1=C(C)NC(C)=C(C(=O)OC/C=C/c2ccccc2)C1c1cccc([N+](=O)[O-])c1 (stereo not shown) [PCM-0065102-001] | 1.035 |  | 59.9 | 0.8604
16 | NCC(=O)Nc1ccc(-n2nc(C(F)(F)F)cc2-c2ccc3c(ccc4ccccc43)c2)cc1 [PCM-0094886-003] | 1.095 |  | 70.3 | 1.037
17 | COC[C@H]1C[C@@H](c2ncc(-c3ccc4c(c3)COc3cc5c(ccc6[nH]c([C@@H]7CC[C@H](C)N7C(=O)[C@@H](NC(=O)OC)C(C)C)nc65)cc3-4)[nH]2)N(C(=O)[C@H](NC(=O)OC)c2ccccc2)C1 [PCM-0214920-001] | 1.025 |  | 56 | 0.8577

Row | Compound | FI (BTK-1h)/FI (BTK-1h+Inhibitor) at 620 nm (BTK-1h; [1]) | FI (650)/FI (620) (BTK-1h; [2]) | BTK Inhibition reported in luminescence assay* (BTK) | FI (650)/FI (620) (BTK-1h; [1])
18 | CN1CCN(Cc2ccc(-c3cnc4[nH]cc(-c5ccc6[nH]ccc6c5)c4c3)cc2)CC1 [PCM-0215377-001] | 1.04 |  | 111 | 1.4774
19 | COC1=CC(=O)c2ccccc2C1=O [PCM-0214886-001] | 1.038 |  | 85.6 | 0.9979
20 | CNCc1ccc(C)c(NC(=O)c2ccc(Nc3nc(-c4ccccc4)c4ccccc4n3)cc2)c1 [PCM-0095748-002] | 1.088 |  | 79.5 | 1.264
21 | C[n+]1cc2c3c(ccc2c2ccc4cc5c(cc4c21)OCO5)OCO3.[Cl-] [PCM-0065605-002] | 1.003 |  | 75.7 | 1.399
22 | O=C(O)c1ccc(C=C2SC(=S)N(c3cccc(C(F)(F)F)c3)C2=O)cc1 [PCM-0095759-002] | 1.262 |  | 54.1 | 1.083
23 | COc1cccc2c1C(=O)c1c(O)c3c(c(O)c1C2=O)C[C@@](O)(C(=O)CO)C[C@@H]3O[C@H]1C[C@H](N)[C@H](O[C@@H]2CCCCO2)[C@H](C)O1 [PCM-0214749-001] | 1.012 |  | 53.7 | 0.7711
24 | CN(C)C/C=C/C(=O)Nc1cc2c(Nc3ccc(F)c(Cl)c3)ncnc2cc1O[C@H]1CCOC1 [PCM-0094907-003] | 1.084 |  | 84.8 | 0.9254
25 | C=CC(=O)Nc1cccc(C)c1Nc1ncc2cc(-c3c(Cl)c(OC)cc(OC)c3Cl)ccc2n1 [PCM-0215508-001] | 1.041 |  | 100.4 | 1.043
26 | C=CC(=O)Nc1ccc(CN2C(=O)N(c3cc(OC)cc(OC)c3)Cc3cnc(Nc4ccc(N5CCN(C)CC5)cc4)nc32)cc1 [PCM-0215559-001] | 1.041 |  | 88.3 | 1.072
27 | COS(=O)(=O)[O-].C[n+]1c2ccccc2nc2ccccc21 [PCM-0216061-001] | 1.045 |  | 64.9 | 1.059
28 | NC(=O)c1cnc2[nH]ccc2c1NC1[C@@H]2CC3C[C@H]1CC(O)(C3)C2 (stereo partly shown) [PCM-0215550-001] | 1.086 |  | 94.5 | 1.093
29 | C=CC(=O)N1CCC(Oc2cc3c(Nc4ccc(Cl)c(Cl)c4F)ncnc3cc2OC)CC1 [PCM-0215416-001] | 1.082 |  | 119.3 | 1.023
30 | Cc1c[nH]c(/C=C2\C(=O)Nc3ccccc32)c1CCC(=O)O [PCM-0216652-001] | 1.061 |  | 83.4 | 1.505
31 | CC(=O)O/N=C1/C(c2c(O)[nH]c3cc(Br)ccc23)=Nc2ccccc21 [PCM-0215536-001] | 1.019 |  | 60.7 | 1.013
32 | Nc1cccc(-c2cc3c(Oc4cccc(O)c4)ncnc3[nH]2)c1 [PCM-0095147-003] | 1.107 |  | 82.1 | 1.616
33 | COc1cc(/C=C/C(=O)CC(=O)/C=C/c2ccc(O)cc2)ccc1O [PCM-0216521-001] | 0.9621 |  | 110.4 | 2.134
